Here are results for 21 compounds from US20250051327A1, “MALT-1 MODULATORS” (EXSCIENTIA AI LIMITED, priority 2020, published 2025).

Assay [1] deals with IL-2 secretion by human effector memory T cells (TEM). Kind of assay: Effector memory T cells IL-2 release assay. In kind it is cell-based. Particulars: human CD4+ effector memory T cells, CD3/CD28 bead stimulation, 24 h, read-out: CD4TC IL2 IC50. The method in brief: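 Human CD4+ effector memory T cells from healthy-donor buffy coats were stimulated with anti-CD3/CD28 Dynabeads and exposed to 10 semi-log compound doses (0.1% DMSO) for 24 h at 37 °C. Supernatant IL-2 was measured by HTRF, and IC50 came from a 4-parameter logistic fit to maximal IL-2. Viability was checked by flow cytometry.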

The target in assay [2] is Recombinant human MALT-1 (amino acids 340-824) (Homo sapiens (Human), UniProt Q9UDY8). Description: MALT-1 inhibition assay (fluorogenic substrate Ac-LRSR-Rh110-DP). In kind it is biochemical. The settings on record: recombinant human MALT-1, substrate Ac-LRSR-Rh110-DP. Summed up:
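MALT-1 at 3 nM final was reacted with 10 μM Ac-LRSR-Rh110-DP, with substrate addition starting the reaction. Incubation ran 60 minutes at 25° C in the dark. Percent inhibition from fluorescence across doses was fitted to a 4-parameter logistic to give IC50.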

Where two headings read alike, the source gives them in different places.

Recombinant human MALT-1 (amino acids 340-824), sequence (Q9UDY8 340-824): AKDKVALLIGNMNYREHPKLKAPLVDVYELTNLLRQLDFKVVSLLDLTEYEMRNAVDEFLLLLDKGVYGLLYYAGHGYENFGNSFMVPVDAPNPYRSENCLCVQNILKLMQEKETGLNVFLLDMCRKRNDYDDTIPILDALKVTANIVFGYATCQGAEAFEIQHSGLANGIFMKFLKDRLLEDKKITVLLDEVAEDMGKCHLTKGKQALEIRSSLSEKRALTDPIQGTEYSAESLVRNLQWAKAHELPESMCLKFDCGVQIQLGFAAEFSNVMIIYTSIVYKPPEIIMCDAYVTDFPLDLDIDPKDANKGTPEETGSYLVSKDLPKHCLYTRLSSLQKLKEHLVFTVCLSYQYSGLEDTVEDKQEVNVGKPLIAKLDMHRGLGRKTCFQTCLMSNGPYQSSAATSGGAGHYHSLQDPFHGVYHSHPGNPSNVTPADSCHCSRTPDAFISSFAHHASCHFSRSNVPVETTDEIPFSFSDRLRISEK

On to `COC[C@]1(C)CCN(c2ccc([C@H](N(C)C(=O)[C@H]3CC[S@@](=N)(=O)CC3)C(F)(F)F)cc2)c2cnc3cc(Cl)nn3c21` (relative stereo) [CPD0073131, (1rel-s,4rel-s)-N-[(1S)-1-[4-[(13rel-R)-4-chloro-13-(methoxymethyl)-13-methyl-2,3,7,10-tetrazatricyclo[7.4.0.0^2,6]trideca-1(9),3,5,7-tetraen-10-yl]phenyl]-2,2,2-trifluoro-ethyl]-1-imino-N-methyl-1-oxo-1λ^6-thiane-4-carboxamide], for which the IC50 stood at 0.097 µM in assay [1] (T-cell) and 0.067 µM in assay [2].

For the compound `CN(C(=O)C1CC1)[C@@H](c1ccc(N2CCCc3c2cnc2cc(Cl)nn32)cc1)C(F)(F)F` [CPD0019354, N-[(1S)-1-(4-{4-chloro-2,3,7,10-tetraazatricyclo[7.4.0.0^2,6]trideca-1(9),3,5,7-tetraen-10-yl}phenyl)-2,2,2-trifluoroethyl]-N-methylcyclopropanecarboxamide], the figures for the IC50 in assay [1] (T-cell) and in assay [2] were 0.083 µM and 0.164 µM, respectively.

Regarding `CN=[S@]1(=O)CC[C@H](C(=O)N(C)[C@@H](c2ccc(N3CCCc4c3cnc3cc(Cl)nn43)cc2)C(F)(F)F)CC1` (relative stereo) [CPD0072531, (1rel-R,4rel-R)—N-[(1S)-1-(4-{4-chloro-2,3,7,10-tetraazatricyclo[7.4.0.0^2,6]trideca-1(9),3,5,7-tetraen-10-yl}phenyl)-2,2,2-trifluoroethyl]-N-methyl-1-(methylimino)-1-oxo-1λ^e-thiane-4-carboxamide], the values for the IC50 in assay [1] (T-cell) and in assay [2] were 0.141 µM and 0.038 µM, respectively.

Take `CN(C(=O)[C@H]1CC[S@](=N)(=O)CC1)[C@@H](c1ccc(N2CCC(C)(C)c3c2cnc2cc(Cl)nn32)cc1)C(F)(F)F` (relative stereo) [CPD0072785, (1rel-r,4rel-r)-N-[(1S)-1-(4-{4-chloro-13,13-dimethyl-2,3,7,10-tetraazatricyclo[7.4.0.0^2,6]trideca-1(9),3,5,7-tetraen-10-yl}phenyl)-2,2,2-trifluoroethyl]-1-imino-N-methyl-1-oxo-1λ^6-thiane-4-carboxamide]: the half-inhibitory concentration (IC50) in assay [1] (T-cell) was determined as 0.051 µM; in assay [2] it was 0.076 µM.

In the case of `CN=[S@]1(=O)CC[C@@H](C(=O)N(C)[C@@H](c2ccc(N3CCCc4c3cnc3cc(Cl)nn43)cc2)C(F)(F)F)CC1` (relative stereo) [CPD0072530, (1rel-S,4rel-S)—N-[(1S)-1-(4-{4-chloro-2,3,7,10-tetraazatricyclo[7.4.0.0^2,6]trideca-1(9),3,5,7-tetraen-10-yl}phenyl)-2,2,2-trifluoroethyl]-N-methyl-1-(methylimino)-1-oxo-1λ^e-thiane-4-carboxamide], the values for the IC50 in assay [1] (T-cell) and in assay [2] were 0.127 µM and 0.059 µM, respectively.

For `CN(C(=O)[C@H]1CC[S@@+]([O-])CC1)[C@@H](c1ccc(N2CCC(C)(C)c3c2cnc2cc(Cl)nn32)cc1)C(F)(F)F` (relative stereo) [CPD0072776, (1rel-s,4rel-s)-N-[(1S)-1-(4-{4-chloro-13,13-dimethyl-2,3,7,10-tetraazatricyclo[7.4.0.0^2,6]trideca-1(9),3,5,7-tetraen-10-yl}phenyl)-2,2,2-trifluoroethyl]-N-methyl-1-oxo-1λ^4-thiane-4-carboxamide], the figures for the concentration for half-maximal inhibition (IC50) in assay [1] (T-cell) and in assay [2] were 0.035 µM and 0.073 µM, respectively.

As to `CN(C(=O)[C@H]1CC[S@@+]([O-])CC1)[C@@H](c1ccc(N2CCC3(CC3)c3c2cnc2cc(F)nn32)cc1)C(F)(F)F` (relative stereo) [CPD0072932, (1rel-s,4rel-s)-N-methyl-1-oxo-N-[(1S)-2,2,2-trifluoro-1-(4-{4′-fluoro-2′,3′,7′,10′-tetraazaspiro[cyclopropane-1,13′-tricyclo[7.4.0.0^2,6]tridecane]-1′(9′),3′,5′,7′-tetraen-10′-yl}phenyl)ethyl]-1λ^4-thiane-4-carboxamide], the results for the IC50 in assay [1] (T-cell) and in assay [2] were 0.056 µM and 0.049 µM, respectively.

For `CN([C@@H](c1ccc(N2CCCc3c2cnc2cc(Cl)nn32)cc1)C(F)(F)F)S(C)(=O)=O` [CPD0021581, N-[(1S)-1-(4-{4-chloro-2,3,7,10-tetraazatricyclo[7.4.0.0^2,6]trideca-1(9),3,5,7-tetraen-10-yl}phenyl)-2,2,2-trifluoroethyl]-N-methylmethanesulfonamide], the IC50 stood at 0.538 µM in assay [1] (T-cell) and 0.37 µM in assay [2].

In the case of `CN(C(=O)C1CCCOC1)[C@@H](c1ccc(N2CCCc3c2cnc2cc(Cl)nn32)cc1)C(F)(F)F` (stereo partly drawn) [CPD0021572, N-[(1S)-1-(4-{4-chloro-2,3,7,10-tetraazatricyclo[7.4.0.0^2,6]trideca-1(9),3,5,7-tetraen-10-yl}phenyl)-2,2,2-trifluoroethyl]-N-methyloxane-3-carboxamide], the IC50 in assay [1] (T-cell) was determined as 0.193 µM; in assay [2] it was 0.166 µM.

For the compound `COc1cc([C@H](N(C)C(=O)C2CCS(=O)(=O)CC2)C(F)(F)F)ccc1N1CCCc2c1cnc1cc(Cl)nn21` [CPD0073040, N-[(1S)-1-(4-{4-chloro-2,3,7,10-tetraazatricyclo[7.4.0.0^2,6]trideca-1(9),3,5,7-tetraen-10-yl}-3-methoxyphenyl)-2,2,2-trifluoroethyl]-N-methyl-1,1-dioxo-1λ^6-thiane-4-carboxamide], the IC50 in assay [1] (T-cell) came to 0.642 µM; in assay [2], 0.368 µM.

Turning to `CN(C(=O)CC1CCNC1)[C@@H](c1ccc(N2CCCc3c2cnc2cc(Cl)nn32)cc1)C(F)(F)F` (stereo partly drawn) [CPD0021849, N-[(1S)-1-(4-{4-chloro-2,3,7,10-tetraazatricyclo[7.4.0.0^2,6]trideca-1(9),3,5,7-tetraen-10-yl}phenyl)-2,2,2-trifluoroethyl]-N-methyl-2-(pyrrolidin-3-yl)acetamide], the half-maximal inhibitory concentration (IC50) in assay [1] (T-cell) worked out at 0.558 µM; in assay [2], 0.203 µM.

As for `CN(C(=O)[C@H]1CC[S@+]([O-])CC1)[C@@H](c1ccc(N2CCC(C)(C)c3c2cnc2cc(F)nn32)cc1)C(F)(F)F` (relative stereo) [CPD0072781, (1rel-r,4rel-r)-N-methyl-1-oxo-N-[(1S)-2,2,2-trifluoro-1-(4-{4-fluoro-13,13-dimethyl-2,3,7,10-tetraazatricyclo [7.4.0.02,6]trideca-1(9),3,5,7-tetraen-10-yl}phenyl)ethyl]-1/4-thiane-4-carboxamide], the results for the IC50 in assay [1] (T-cell) and in assay [2] were 0.075 µM and 0.06 µM, respectively.

In the case of `CCN(C(=O)C1CCS(=O)(=O)CC1)[C@@H](c1ccc(N2CCCc3c2cnc2cc(Cl)nn32)cc1)C(F)(F)F` [CPD0073918, N-[(1S)-1-(4-{4-chloro-2,3,7,10-tetraazatricyclo[7.4.0.0^2,6]trideca-1(9),3,5,7-tetraen-10-yl}phenyl)-2,2,2-trifluoroethyl]-N-ethyl-1,1-dioxo-1λ^6-thiane-4-carboxamide], the half-inhibitory concentration (IC50) came out at 0.145 µM in assay [1] (T-cell) and 0.106 µM in assay [2].

With `CC1CCN(c2ccc([C@H](N(C)C(=O)[C@H]3CC[S@@](=N)(=O)CC3)C(F)(F)F)cc2)c2cnc3cc(Cl)nn3c21` (stereo partly drawn) [CPD0072812], the half-inhibitory concentration (IC50) in assay [1] (T-cell) was found to be 0.079 µM; in assay [2] it was 0.031 µM.

Consider `CN(C(=O)C1CCS(=O)(=O)C1)[C@@H](c1ccc(N2CCCc3c2cnc2cc(Cl)nn32)cc1)C(F)(F)F` (stereo partly drawn) [CPD0021573], for which the half-inhibitory concentration (IC50) in assay [1] (T-cell) is 0.085 µM; in assay [2] it was 0.131 µM.

Regarding `CC1CCN(c2ccc([C@H](N(C)C(=O)C3CCS(=O)(=O)CC3)C(F)(F)F)cc2)c2cnc3cc(Cl)nn3c21` (single isomer, unassigned) [CPD0021811], the IC50 is 0.082 µM in assay [1] (T-cell) and 0.068 µM in assay [2].

For the compound `CN(C(=O)C12CN(C1)S(=O)(=O)C2)[C@@H](c1ccc(N2CCCc3c2cnc2cc(Cl)nn32)cc1)C(F)(F)F` [CPD0073087, N-[(1S)-1-(4-{4-chloro-2,3,7,10-tetraazatricyclo[7.4.0.0^2,6]trideca-1(9),3,5,7-tetraen-10-yl}phenyl)-2,2,2-trifluoroethyl]-N-methyl-2,2-dioxo-2λ^6-thia-1-azabicyclo[2.1.1]hexane-4-carboxamide], the values for the IC50 in assay [1] (T-cell) and in assay [2] were 0.103 µM and 0.078 µM, respectively.

In the case of `CN(C(=O)[C@H]1CCN(S(C)(=O)=O)C1)[C@@H](c1ccc(N2CCCc3c2cnc2cc(Cl)nn32)cc1)C(F)(F)F` (relative stereo) [CPD0073143, (3rel-S)-N-[(1S)-1-(4-{4-chloro-2,3,7,10-tetraazatricyclo[7.4.0.0^2,6]trideca-1(9),3,5,7-tetraen-10-yl}phenyl)-2,2,2-trifluoroethyl]-1-methanesulfonyl-N-methylpyrrolidine-3-carboxamide], the IC50 worked out at 0.107 µM in assay [1] (T-cell) and 0.068 µM in assay [2].

As to `O=C(Nc1cnc(-n2nccn2)c(Cl)c1)c1cnn(-c2cccc3ncccc23)c1NCCCCl` [CPD0019183], the half-maximal inhibitory concentration (IC50) turned out to be 10 µM in assay [1] (T-cell) and 0.464 µM in assay [2].

Consider `CC1CCc2c(cnc3cc(Cl)nn23)N1c1ccc([C@H](N(C)C(=O)C2CCS(=O)(=O)CC2)C(F)(F)F)cc1` (stereo partly drawn) [CPD0072805, N-[(1S)-1-{4-[(11rel-S)-4-chloro-11-methyl-2,3,7,10-tetraazatricyclo[7.4.0.0^2,6]trideca-1(9),3,5,7-tetraen-10-yl]phenyl}-2,2,2-trifluoroethyl]-N-methyl-1,1-dioxo-1λ^6-thiane-4-carboxamide], for which the IC50 in assay [1] was determined as 1.02 µM; in assay [2], 0.172 µM.

For `CN(C(=O)CC1CCOC1)[C@@H](c1ccc(N2CCCc3c2cnc2cc(Cl)nn32)cc1)C(F)(F)F` (stereo partly drawn) [CPD0021874, N-[(1S)-1-(4-{4-chloro-2,3,7,10-tetraazatricyclo[7.4.0.0^2,6]trideca-1(9),3,5,7-tetraen-10-yl}phenyl)-2,2,2-trifluoroethyl]-N-methyl-2-(oxolan-3-yl)acetamide], the half-inhibitory concentration (IC50) amounted to 0.209 µM in assay [1] (T-cell) and 0.256 µM in assay [2].

As usually defined, the IC50 is the concentration that inhibits the measured activity by half.
